This note sets out measurements from ChEMBL document CHEMBL1123242, “Derivatives of 1-(1,3-benzodioxol-5-yl)-2-butanamine: representatives of a novel therapeutic class” (1986).

Holding throughout (assay type): functional
Assay [1] relates to Rattus norvegicus. Kind of assay: Compound was tested for hallucinogenic activity in rats at 4.14 dose (mg/kg); Number of rats selecting the LSD lever/ number of rats responding (2/8).
The test system of assay [2] is Rattus norvegicus. Kind of assay: Compound was tested for hallucinogenic activity in rats at 2.41 dose(mg/kg); Number of rats selecting the LSD lever/ number of rats responding (3/8).
For assay [3], the system named is Rattus norvegicus. Kind of assay: Compound was tested for hallucinogenic activity in rats at 0.69 dose(mg/kg); Number of rats selecting the LSD lever/ number of rats responding (0/8).
Assay [4] relates to Rattus norvegicus. Kind of assay: Compound was tested for hallucinogenic activity in rats at dose 1.38 (mg/kg); 1/8.
Assay [5] relates to Rattus norvegicus. In words: Compound was tested for hallucinogenic activity in rats at 1.72 dose (mg/kg); Number of rats selecting the LSD lever/ number of rats responding (2/9).
In assay [6] the test system is Rattus norvegicus. In words: Compound was tested for hallucinogenic activity in rats at the dose 0.34(mg/kg); Number of rats selecting the LSD lever/ number of rats responding (2/8).
The test system of assay [7] is Rattus norvegicus. Kind of assay: Compound was tested for hallucinogenic activity in rats at the dose 0.17(mg/kg); Number of rats selecting the LSD lever/ number of rats responding (2/8).
The test system of assay [8] is Rattus norvegicus. Kind of assay: Compound was tested for hallucinogenic activity in rats at 2.76 dose(mg/kg); Number of rats selecting the LSD lever/ number of rats responding (4/8).
Assay [9] has as its system Rattus norvegicus. In words: Compound was tested for hallucinogenic activity in rats at 5.52 dose(mg/kg); 1/2, highest dose tested.
Assay [10] deals with Rattus norvegicus. In words: Compound was tested for hallucinogenic activity in rats at 3.45 dose (mg/kg); Number of rats selecting the LSD lever/ number of rats responding (3/8).
The subject of assay [11] is Rattus norvegicus. Kind of assay: Compound was tested for hallucinogenic activity in rats at 2.07 dose(mg/kg); Number of rats selecting the LSD lever/ number of rats responding (3/10).

As for `CC[C@@H](N)Cc1ccc2c(c1)OCO2`, the Result in assay [1] is 2; in assay [2], 3; in assay [3] it was 0; in assay [4], 1; in assay [5], 2; in [6], 2. In addition, the Result was 2 in [7]; 4 in [8]; 1 in assay [9]; 3 in [10]; 3 in assay [11].
